Assay results published in patent US20030109525A1, “Crystalline thiazine oxazolidinones” (PHARMACIA & UPJOHN COMPANY, priority 2001, published 2003).

Assays:
[1] = Bulk drug stability (storage at elevated temperature and humidity, HPLC assay); format: physicochemical
Description: As referred to in the present application, “stable” in bulk drug stability tests means that at least about 90% by weight, preferably at least about 95% by weight, and more preferably at least about 99% by weight of the bulk drug remains unchanged after storage under the indicated conditions for the indicated time.
Aliquots (about 0.3 mg) of bulk anhydrous crystalline N-({(5S)-3-[4-(1,1-dioxido-4-thiomorpholinyl)-3,5-difluorophenyl]-2-oxo-1,3-oxazolidin-5-yl}methyl)acetamide were weighed into 2-mL vials. The uncapped vials were placed either in a 75% relative humidity chamber (desiccator containing water saturated with sodium chloride) or in a dry chamber (desiccator containing Drierite). The chambers were placed in temperature controlled cabinets at 56° C. and 70° C. A single vial was removed from each desiccator at selected time points and was assayed using high pressure liquid chromatography (HPLC).

[2] = Hygroscopicity by dynamic moisture sorption gravimetry (DMSG); format: physicochemical; details: 25° C.
Description: X-ray diffraction (XRD) patterns were measured on a Scintag X2 diffractometer (Thermo ARL, Ecublens, Switzerland) equipped with a theta-theta goniometer. Single crystal x-ray diffraction was carried out on a Bruker SMART 6K CCD Area Detector diffractometer (Bruker AXS, Karlsruhe, Germany). Mass spectrometry (MS) (ionization type) was carried out on a Micromass Platform II spectrometer (Micromass, Manchester, United Kingdom). High pressure liquid chromatography (HPLC) was carried out on an Agilent 1100 Series chromatograph (Agilent Technologies, Palo Alto, Calif.). Melting points were determined using a TA Instruments 2920 differential scanning calorimeter (TA Instruments, New Castle, Del.) module with a Thermal Analyst 5000 controller. Hygroscopicity was assessed by dynamic moisture sorption gravimetry (DMSG) using a Controlled Atmosphere Microbalance (Pharmacia Corp., Kalamazoo, Mich.). All chemicals used are available from Aldrich Chemical Co., Milwaukee, Wis., unless otherwise specified. N-({(5S)-3-[3,5-difluoro-4-(4-thiomorpholinyl)phenyl]-2-oxo-1,3-oxazolidin-5-yl}methyl)acetamide was prepared as described in PCT International Publication Number WO 01/98297 (Barbachyn et al.).
DMSG isotherms were collected on the variable temperature controlled atmospheric microbalance. Approximately 10 mg samples were used in the balance. […] The mass was then measured every two minutes. […]

SMILES: CC(=O)NC[C@H]1CN(c2cc(F)c(N3CCS(=O)(=O)CC3)c(F)c2)C(=O)O1 [Anhydrous Crystalline Form, N-({(5S)-3-[4-(1,1-dioxido-4-thiomorpholinyl)-3,5-difluorophenyl]-2-oxo-1,3-oxazolidin-5-yl}methyl)acetamide]
- Bulk drug stability, % of initial HPLC peak area ([1]; 56° C., 75% relative humidity, Day 6): 100.1%
- Bulk drug stability, % of initial HPLC peak area ([1]; 56° C., 75% relative humidity, Day 13): 99.3%
- Bulk drug stability, % of initial HPLC peak area ([1]; 56° C., 75% relative humidity, Day 27): 99.9%
- Bulk drug stability, % of initial HPLC peak area ([1]; 56° C., 75% relative humidity, Day 61): 100.1%
- Bulk drug stability, % of initial HPLC peak area ([1]; 56° C., dessicator, Day 6): 100.1%
- Bulk drug stability, % of initial HPLC peak area ([1]; 56° C., dessicator, Day 13): 99.4%
- Bulk drug stability, % of initial HPLC peak area ([1]; 56° C., dessicator, Day 27): 100.0%
- Bulk drug stability, % of initial HPLC peak area ([1]; 56° C., dessicator, Day 61): 99.8%
- Bulk drug stability, % of initial HPLC peak area ([1]; 70° C., 75% relative humidity, Day 6): 100.1%
- Bulk drug stability, % of initial HPLC peak area ([1]; 70° C., 75% relative humidity, Day 13): 99.6%
- Bulk drug stability, % of initial HPLC peak area ([1]; 70° C., 75% relative humidity, Day 27): 99.9%
- Bulk drug stability, % of initial HPLC peak area ([1]; 70° C., 75% relative humidity, Day 61): 99.9%
- Bulk drug stability, % of initial HPLC peak area ([1]; 70° C., dessicator, Day 6): 100.1%
- Bulk drug stability, % of initial HPLC peak area ([1]; 70° C., dessicator, Day 13): 99.7%
- Bulk drug stability, % of initial HPLC peak area ([1]; 70° C., dessicator, Day 27): 100.0%
- Bulk drug stability, % of initial HPLC peak area ([1]; 70° C., dessicator, Day 61): 100.0%
- Bulk drug stability in aging tests (in words) ([1]; aging tests): excellent bulk drug stability
- Hygroscopicity ([2]; dynamic moisture sorption scan 0 to 87% relative humidity): not hygroscopic
- Moisture picked up during dynamic moisture sorption scan ([2]; scan from 0 to 87% relative humidity, 3% humidity steps, equilibrium time not more than 180 minutes per step): approximately 0.2%
